# Measurements: article PMC6482291, “Anticonvulsant Activity of Pterostilbene in Zebrafish and Mouse Acute Seizure Tests” (Neurochemical Research, 2019)
# What was measured:
# [1] = test system: PTZ-induced epileptiform discharges in zebrafish larvae; assay: Electrographic discharge assessment (LFP recordings from optic tectum) in zebrafish larvae exposed to PTZ; type: in vivo, Danio rerio; conditions: 10 µM PTE, 2 h incubation, 20 mM PTZ, 20 min recording
# Experimental: For local field potential (LFP) recordings, zebrafish larvae were incubated for 2 h, as described above. After incubation, larvae were exposed to vehicle or 20 mM PTZ for 5 min. Thereafter, larvae were immobilized in a thin layer of 2% low-melting-point agarose and the glass electrode (resistance […]) filled with artificial cerebrospinal fluid (124 mM NaCl, 2 mM KCl, 2 mM MgSO4, 2 Mm CaCl2, 1.25 mM KH2PO4, 26 mM NaHCO3, 10 mM glucose) was placed into the optic tectum (MultiClamp 700B amplifier, Digidata 1440A digitizer, Axon instruments, USA). Single recordings for each larva were performed for a period of 20 min. The discharges were analyzed according to the duration of spiking paroxysms and only those where the amplitude exceeded three times the background noise were taken into account. The data were analyzed with the aid of Clampfit 10.2 software (Molecular Devices Corporation, USA).
# [2] = test system: 6 Hz-induced psychomotor seizures in mice; assay: 6 Hz psychomotor seizure threshold test; type: in vivo; conditions: 30 min before test, 95% confidence limits in brackets
# Source text: Psychomotor (limbic) seizures were induced by transcorneal stimulation (6 Hz, 0.2 ms rectangular pulse, 3 s duration) generated by a Grass S48 stimulator coupled with a constant current unit CCU1 (both from Grass Technologies, West Warwick, RI, USA). Before stimulation a drop of ocular anesthetic, 1% tetracaine hydrochloride solution, was applied into the animals’ corneas. The electrodes were soaked in saline to ensure the good electrical contact. During the stimulation animals were restrained manually and immediately after the stimulation were placed in a Plexiglas box for observation of presence or absence of the psychomotor seizures. These seizures were characterized by immobilization or stun, often associated with rearing, forelimb clonus, twitching of vibrissae and elevated tail (Straub-tail), lasting at least 10 s from the stimulation. Lack of the above symptoms or their cessation within 10 s from the stimulation was considered as absence of seizure activity.
# In the present study two 6 Hz-induced psychomotor seizure tests were performed: (1) the 6 Hz psychomotor seizure threshold test which employed stimulation at varied current intensities, and (2) the 6 Hz psychomotor seizure test with supramaximal stimulation at 32 mA and 44 mA.
# In the 6 Hz psychomotor seizures threshold test, threshold current intensity (CS50 in mA) was estimated in groups of 20 animals according to the above mentioned up-and-down method.
structure (smiles),measurement,setting,value
"COc1cc(/C=C/c2ccc(O)cc2)cc(OC)c1 [PTE, trans-3,5-dimethoxy-4′-hydroxy-trans-stilbene]",mean duration of ictal-like discharges,[1],statistically significant reduction
same,number of epileptiform discharges in the zebrafish brain,[1]; vs vehicle,significantly reduced
same,total duration of epileptiform discharges in the zebrafish brain,[1]; vs vehicle,significantly reduced
same,CS50 (psychomotor seizure threshold),"[2]; PTE 100 mg/kg ip, p < 0.01",15.56 (14.18–17.08) mA
same,CS50 (psychomotor seizure threshold),"[2]; PTE 200 mg/kg ip, p < 0.001",19.28 (17.15–21.66) mA
